Experimental data from BindingDB's records for doi:10.1016/s0960-894x(00)00462-5 (Smithkline Beecham Pharmaceuticals, 2001).

Tests used:
[1] = target: Capsid scaffolding protein / assemblin protease (Human cytomegalovirus) (UniProt P16753); test: In vitro inhibitory activity against human cytomegalovirus (hCMV) protease in the presence of zinc
[2] = target: Capsid scaffolding protein / assemblin protease (Human cytomegalovirus) (UniProt P16753); test: In vitro inhibitory activity against human cytomegalovirus (hCMV) protease in the absence of zinc
[3] = target: Capsid scaffolding protein / assemblin protease (Human cytomegalovirus) (UniProt P16753); test: In vitro inhibitory activity against human cytomegalovirus (hCMV) protease in the presence of zinc; remark: listed apart in the source

Chain of Capsid scaffolding protein / assemblin protease (Human cytomegalovirus) (P16753 whole entry, looked up): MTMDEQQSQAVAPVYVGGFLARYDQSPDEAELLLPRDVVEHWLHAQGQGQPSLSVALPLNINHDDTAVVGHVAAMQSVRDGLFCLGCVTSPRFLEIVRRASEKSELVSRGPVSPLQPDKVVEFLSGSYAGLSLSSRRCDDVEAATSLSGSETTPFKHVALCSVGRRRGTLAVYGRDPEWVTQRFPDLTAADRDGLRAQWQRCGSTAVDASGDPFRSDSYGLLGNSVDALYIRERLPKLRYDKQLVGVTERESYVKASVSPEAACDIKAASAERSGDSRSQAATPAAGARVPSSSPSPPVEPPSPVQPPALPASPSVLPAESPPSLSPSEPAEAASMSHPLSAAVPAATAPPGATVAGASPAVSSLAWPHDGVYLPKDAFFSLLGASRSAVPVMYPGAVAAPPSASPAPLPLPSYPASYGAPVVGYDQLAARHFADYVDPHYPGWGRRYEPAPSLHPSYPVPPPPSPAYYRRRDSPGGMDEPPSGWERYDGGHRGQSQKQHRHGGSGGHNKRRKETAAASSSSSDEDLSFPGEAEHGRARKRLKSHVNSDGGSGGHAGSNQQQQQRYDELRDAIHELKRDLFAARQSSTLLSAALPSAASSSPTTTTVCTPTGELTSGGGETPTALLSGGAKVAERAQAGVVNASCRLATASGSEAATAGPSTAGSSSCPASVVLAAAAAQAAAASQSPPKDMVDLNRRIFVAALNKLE

SMILES | IC50 [1] [µM] | IC50 [2] [µM] | IC50 [3] [µM]
CCCCCCCCSc1ncc(Cc2cn(Cc3ccc(C(=O)NCC4CC4)cc3)cn2)[nH]1 [N-Cyclopropylmethyl-4-[4-(2-octylsulfanyl-1H-imidazol-4-ylmethyl)-imidazol-1-ylmethyl]-benzamide] | 15 | > 150 | –
CCCCCCCCSc1ncc(Cc2cn(CC(=O)NC(Cc3ccccc3)C(=O)OCc3ccccc3)cn2)[nH]1 (stereo not drawn) [2-{2-[4-(2-Octylsulfanyl-1H-imidazol-4-ylmethyl)-imidazol-1-yl]-acetylamino}-3-phenyl-propionic acid benzyl ester] | – | 125 | 41
CCCCCCCCSc1ncc(Cc2cn(Cc3ccc(C(=O)OC)cc3)cn2)[nH]1 [4-[4-(2-Octylsulfanyl-1H-imidazol-4-ylmethyl)-imidazol-1-ylmethyl]-benzoic acid methyl ester] | 7 | > 150 | –
CCCCCCCCSc1ncc(Cc2cn(CC(=O)NC(CC(=O)OCc3ccccc3)C(=O)OCc3ccccc3)cn2)[nH]1 (stereo not drawn) [2-{2-[4-(2-Octylsulfanyl-1H-imidazol-4-ylmethyl)-imidazol-1-yl]-acetylamino}-succinic acid dibenzyl ester] | 5 | 15 | –
